Assays:
[1] = target: T1, mutant p53 protein in H596 (G245C) non-small-cell lung cancer cells (Homo sapiens, UniProt P04637, G245C); test: Immunoblot of mutant p53 protein in H596 cells; type: cell-based
T1 construct: host or cells: H596
From the text: (§1) Human H596, A549, HCT116, MDA-MB-231, MDA-MB-468, MCF-7, DU145, MCF-10A, SW480, and SCC-4 cells were obtained from ATCC (Manassas, Va.). H1299-175H cells were kindly provided by Dr. Maria Laura Avantaggiati (Georgetown University). Cells were maintained in DMEM or RPMI-1640 medium supplemented with 10% FBS (Hyclone). […] 2,2-Diphenylethyl ITC, 4-phenoxybenzyl ITC, 4-methoxybenzyl ITC, 4-chlorobenzyl ITC, Dα-methylbenzyl ITC, trityl ITC, and 3-phenylpropyl ITC were purchased from Trans World Chemicals (Rockville, Md.). Erucin and 4-phenylbutyl ITC were from LKT Laboratories, Inc. (St. Paul, Minn.). […] The p53 DO-1 and β-actin antibodies were purchased from Santa Cruz Biotechnology (Santa Cruz, Calif.), horseradish peroxidase-labeled goat antimouse secondary antibodies were purchased from GE-Healthcare (Pittsburgh, Pa.), and Bio-Rad Protein Assay was from Bio-Rad (Hercules, Calif.).
(§2) Whole cell lysates were prepared in lysis buffer (20 mM HEPES, pH 7.4, 2 mM EGTA, 50 mM β-glycerol phosphate, 1% Triton X-100, 10% glycerol, 1 mM DTT, 1 mM PMSF, […], 1 mM Na3-VO4, and 5 mM NaF). For immunoblot analysis, equal amounts of protein were resolved on 4-12% NuPAGE BisTris gels (Invitrogen) and transferred to PVDF membranes (Millipore). The membranes were blocked with 5% milk in TBST and were then probed with p53 (DO-1) or β-actin antibody. Proteins were detected using enhanced chemiluminescence (ECL) reagents (GE Healthcare).

[2] = target: T2, mutant p53 in MDA-MB-231 breast cancer cells (Homo sapiens, UniProt P04637, R280K); test: Immunoblot of mutant p53 in MDA-MB-231 cells treated with ITCs; type: cell-based; conditions: for depletion of mutant p53 (FIG. 3B-E): H596 20 μM / MDA-MB-231 10 μM ITCs
T2 construct: host or cells: MDA-MB-231
From the text: as §1, §2

[3] = target: T3, mutant (G245C) p53 DNA-binding domain (Homo sapiens, UniProt P04637, G245C); test: Monochlorobimane fluorometric cysteine binding assay; conditions: 100 μM ITC, 1 h, 32 C; compared with trityl ITC, cyclohexylmethyl ITC, SFN, AITC, and PITC (p<0.05)
T3 construct: made in house; host or cells: Escherichia coli BL21
Protocol: BL21 […] Escherichia coli were transformed with pET29b wild-type or mutant (G245C) p53 DNA binding domain (DBD) plasmids. The E. coli were then cultured in LB media supplemented with 100 μM ZnCl2 and 25 μg/mL kanamycin at 37° C. until OD600=0.6-0.8. Protein expression was induced by 0.1 mM isopropyl β-D-1-thiogalactopyranoside for 16 h at 37 gC for wild-type and 16 gC for mutant p53. Bacterial pellets were then harvested by centrifugation at 5000×g, 10 min, 4 gC, and lysed via sonication in 50 mM Tris, 50 mM KCl, 5 mM dithiothreitol, 1 mM PMSF, pH 7 buffer. The soluble fraction was passed through a Capto S cation exchange column (GE Healthcare) and eluted with 50 mM Tris, 200 mM KCl, 5 mM DTT, pH 7. Eluted protein was dialyzed overnight against a non-salt dialysis buffer (50 mM Tris, 5 mM DTT, pH 7) and loaded onto a HiTrap Heparin HP column (GE Healthcare). The p53 DBD was purified via a AKTApurifier-10 protein liquid chromatography system (GE Healthcare) with an increasing KCl salt gradient, and purity was tested by SDSPAGE and Coomassie blue staining. Purified protein was dialyzed in PBS, and protein concentrations were determined prior to performing fluorescence experiments.
In a white 96-well plate, 100 μL of purified mutant (G245C) p53 DNA-binding domain protein in PBS was treated with DMSO, 100 μM ITCs in DMSO, or 500 μM iodoacetamide (positive binding control). An additional well containing 100 μL of PBS was used to determine background. Samples were incubated with compounds in the dark for 1 h at 32 gC, after which […] of 10 mM monochlorobimane was added (in the dark), and samples were further incubated in the dark at 32 gC for 30 min. Fluorescence readings were then obtained using a BIO-TEK Synergy HT plate reader (λex 380 nm; λem 485 nm).

[4] = test system: MDA-MB-231 breast cancer cells; test: FITC-annexin V / propidium iodide apoptosis assay; type: cell-based, Human; conditions: MDA-MB-231, 10 μM, 24 h; for induction of apoptosis vs DMSO: p<0.05
Protocol: Then, 100 μL of each sample was added to a 5 mm tube, and the annexin V apoptosis kit protocol was followed. Samples were immediately analyzed with flow cytometry.

In the case of `S=C=NCc1ccccc1` [BITC, benzyl isothiocyanate], the “level of mutant p53” value ([1]; H596, 10 μM, 2 h) was “significantly reduced”, the “depletion of mutant p53 at equimolar concentrations” value ([1]; H596, 20 μM ITCs, 24 h, compared with DMSO control) was “approximately the same extent” and the “depletion of mutant p53 (FIG. 3B-E)” value [2] was “deplete mutant p53”. The “depletion of mutant p53 at equimolar concentrations” value ([2]; MDA-MB-231, 10 μM ITCs, 24 h, compared with DMSO control) was “approximately the same extent”, the “binding affinity for mutant (G245C) p53 DBD (free thiols, relative fluorescence)” value [3] was “greater binding affinities” and the “induction of apoptosis vs DMSO” value [4] was “greater induction of apoptosis”.
In the case of `S=C=NCC(c1ccccc1)c1ccccc1` [2,2-diphenylethyl ITC, 2,2-diphenylethyl isothiocyanate], the “rank as depletor of mutant p53 among ITCs studied” value ([2]; FIG. 3B-E) was “most potent”, the “depletion of mutant p53 (FIG. 3B-E)” value [2] was “deplete mutant p53” and the “binding affinity for mutant (G245C) p53 DBD (free thiols, relative fluorescence)” value [3] was “greater binding affinities”. The “induction of apoptosis vs DMSO” value [4] was “greater induction of apoptosis” and the “rank as inducer of apoptosis” value ([4]; p<0.05 compared with BITC) was “strongest inducer of apoptosis”.
For `S=C=NCCCCc1ccccc1` [4-PBITC, 4-phenylbutyl ITC], the “depletion of mutant p53 (FIG. 3B-E)” value [2] was “deplete mutant p53” and the “induction of apoptosis vs DMSO” value [4] was “greater induction of apoptosis”.
In the case of `CNCCc1ccccc1` [NMPEA, N-methylphenethylamine, reference compound], the “mutant p53 protein level” value ([1]; H596, 15 μM, up to 24 h) was “failed to alter” and the “mutant p53 protein level” value ([1]; H596, 60 μM for 2 h) was “failed to alter”.
For `S=C=NCCCc1ccccc1` [3-PPITC, 3-phenylpropyl ITC], the “depletion of mutant p53 (FIG. 3B-E)” value [2] was “deplete mutant p53”, the “binding affinity for mutant (G245C) p53 DBD (free thiols, relative fluorescence)” value [3] was “greater binding affinities” and the “induction of apoptosis vs DMSO” value [4] was “greater induction of apoptosis”.
`COc1ccc(CN=C=S)cc1` [4-methoxybenzyl ITC] was tested, and the “binding affinity for mutant (G245C) p53 DBD (free thiols, relative fluorescence)” value [3] was “greater binding affinities”.
In the case of `S=C=NCc1ccc(Cl)cc1` [4-chlorobenzyl ITC], the “binding affinity for mutant (G245C) p53 DBD (free thiols, relative fluorescence)” value [3] was “greater binding affinities”.
